# Patent US20210369698A1 (Attillaps Holdings, priority 2019, published 2021)
# System: Demodex mites
# Conditions: 10% chloroquine in water; in vitro; water control 44.8 hours
# Method: In vitro efficacy and mite lifetimes: Relative efficacy of various formulations are evaluated with a demodex survival time experiments. FIG. 3 tabulates demodex survival time, expressed in terms of LT50 (time at which 50% of demodex mites are killed) and/or average minutes to death for various active agents.
smiles,measurement,value
"CCN(CC)CCCC(C)Nc1ccnc2cc(Cl)ccc12 (stereo not shown) [chloroquine, Chloroquine]",LT50 (time at which 50% of demodex mites are killed),31.6 h
